# Source: patent publication US9744250B2, “Chemical model of a neurodegenerative disease, method for preparation and uses of same” (priority 2012, dated 2017)
# What was measured:
# caspase-9 = assay: Caspase-9 activity (Ac-LEHD-AFC cleavage) in SH-SY5Y cells; type: cell-based, human; conditions: 1 mM, 96 h
# Description: Measurement of the activities of the various caspases is based on the ability of the caspases to cleave specific fluorescent substrates: Ac-DEVD-AFC for caspase-3, Ac-IETD-AFC for caspase-8, or Ac-LEHD-AFC for caspase-9. SH-SY5Y neuronal cells were incubated in 48-well plates with either furosemide pyridinium (1 mM) for 96 h or with MPP+ (1 mM) for 6 h, then 24 h of incubation with no MPP+. After incubation, the cells were trypsinized, then rinsed with PBS and counted, then harvested in 100 μl of buffer containing 30 mM HEPES, 0.3 mM EDTA, 100 mM NaCl, 0.15% Triton X-100, and 10 mM DTT. The cell extract was then incubated for 1 hour at 37° C. with the specific substrate (100 μM) in a 96-well plate. Fluorescence was measured at λex400 nm and λem505 nm in a fluorescence detection plate reader (TECAN Infinite M1000) (Yue et al., supra). The results were expressed as percentages relative to the measured activity of cells cultured under the same conditions and not subjected to any treatment.
# tyrosine hydroxylase = assay: Immunohistochemistry of tyrosine hydroxylase in exposed mice; type: in vivo, mouse; conditions: 20 mg/kg/day oral 7 days, 30 days after end of exposure
# Description: Swiss mice were divided into two groups of five animals (experimental and control). The experiments were performed independently two times. The mice of the experimental group were exposed to furosemide pyridinium for 7 days at a daily dose of 20 mg/kg. The furosemide pyridinium was administered orally in the drinking water. The mice were sacrificed 30 days after the end of the furosemide pyridinium treatment.
# For this, the mice were anesthetized with pentobarbital (50 mg/Kg), then an intracardiac infusion of NaCl (0.9%) was administered, followed by fixation by an infusion of 4% paraformaldehyde in 0.1M phosphate buffer, pH 7.2. The brain was removed, placed in NaCl (0.9%) at 4° C., and frozen in Tissue Tek immersed in a cold isopentane bath. Coronal sections of eight microns were obtained using a cryostat and were processed for immunohistochemistry (labeling the tyrosine hydroxylase and the Ser129-phosphorylated alpha-synuclein).
smiles,measurement,setting,value
"NS(=O)(=O)c1cc(C(=O)[O-])c(-[n+]2cccc(O)c2)cc1Cl [furosemide pyridinium, 4-chloro-2-(3-hydroxypyridinium-1-yl)-5-sulfamoylbenzoate]",enzymatic activity of caspase-9 compared to untreated cells,caspase-9,170%
same,labeling of tyrosine hydroxylase in the striata,tyrosine hydroxylase,net reduction
